Measured values published in PMC8187775, “Metabolism and Tissue Distribution of Chelerythrine and Effects of Macleaya Cordata Extracts on Liver NAD(P)H Quinone Oxidoreductase” (Frontiers in Veterinary Science, 2021).
Values belong to the compound of their own block, whether it stands above or below them.

Legend:
rat liver cytosol = test: Effect of inhibitors on chelerythrine iminium bond reduction to DHCHE by rat liver cytosol; type: in vitro ADME; settings: 100 μmol/L inhibitor, 0.25 mg/mL cytosol protein, 2 mM NADPH, 10 μg/mL chelerythrine, 15 min
Protocol: In brief, the incubation mixture consisted of 0.25 mg/mL cytosol protein, 5 mM MgCl2, 100 μmol/L inhibitor, and 2 mM NADPH in 0.05 M Tris-HCl buffer (pH 7.4). The inhibitors were dicoumarol (quinone oxidoreductase 1), quercetin (quinone oxidoreductase 2, carbonyl reductase), menadione (aldehyde oxidase, carbonyl reductase), and 7-hydroxycoumarin (xanthine oxidase). The reaction was preincubated at 37°C for 5 min. […] The incubation mixtures without the inhibitor or cytosol protein acted as the blank control. The reaction was stopped by adding 200 μL ice-cold acetonitrile after 15 min, and the mixture was vortexed and centrifuged at 12,000 g for 15 min. […] Phenomenex Co. USA). The mobile phase consisted of a 30/70 (v/v) mixture of solvent A (0.2% aqueous acetic acid solution) and solvent B (acetonitrile). The injection dose was 10 μl and the flow rate was 1 mL/min. The column temperature was set to 35°C and the detection wavelength was set to 285 nm. The DHCHE standard curve varied linearly in the concentration range from 0.050 to 10 μg/mL. […] The lower limit of quantification was 0.050 μg/mL.

[1] = Chelerythrine/sanguinarine and metabolites in rat tissues after 3 weeks of intragastric M. cordata extracts (HPLC/QqTOF-MS); type: in vivo
Protocol: Tissue samples including cecal contents, lung, heart, liver, kidney, and spleen were collected at 24 and 48 h after the last administration and stored at −70°C.
(§1) The injection volume was 5 μL.
The quarantine window was set at 1 amu.

[2] = design: method as in none printed; settings: no species, dose or reference given; cited from earlier work
[3] = Metabolite profile of chelerythrine in plasma, urine and feces of rats after intragastric chelerythrine (HPLC/QqTOF-MS)
Protocol: Ten SD rats (160–180 g, five males and five females) were individually placed in stainless steel metabolic cages. […] Chelerythrine in water with the dissolving aid of Tween-80 was intragastrically administered to rats at a dose of 10 mg/kg. One milliliter whole blood samples were collected from retro orbital sinus with a heparinized blood collection tube at 3 h following drug dosing. Each collected blood sample was centrifuged at 3,000 rpm at 4°C for 10 min to obtain plasma samples. […] All samples were collected from female and male rats and stored at −70°C.
(§2) The preparations of plasma, urine, feces, and tissues were pretreatments according to our current study ([19]).
as §1
Nitrogen was used as atomization gas, and the flow rate was 9 L/min. The parameters of the mass spectrometer were as follows: nozzle voltage 1 kv, capillary voltage 4.0 kv, sheath gas temperature 350°C, sheath gas flow rate 11 L/min, nebulizer voltage 35 psig. The quarantine window was set at 1 amu. The instrument automatically performed the internal mass calibration though the automated calibrate transfer system. […] All the data acquisition was controlled by Agilent Mass Hunter software (version B.01.03 Build 1.3.157.0 2), and the Agilent Mass Hunter software (Qualitative Analysis B.04.0) was used to accurately take mass measurements of each peak from the total ion chromatograms. Then, these metabolites were subjected to accurate EIC, and the acceptance or rejection was decided according to the peak appearing in the EIC. Structural elucidations of chelerythrine metabolites were carried out on the basis of the mass change from the metabolite or parent drug, the predicted elemental compositions, and the interpretation of accurate MS/MS spectra.

in vivo = test: in vivo
Protocol: Tissue distribution was carried out in eighteen SD rats (160–180 g, nine males and nine females). Twelve rats (six male and six female) were intragastrically administered with M. cordata extracts at a single dosage of 5 mg/kg (containing about 2 mg/kg dose of sanguinarine and 1 mg/kg dose of chelerythrine) in water with the dissolving aid of Tween-80 for 3 weeks. Three male and three female rats were given the same amount of water as the blank control group by intragastric administration.
as §2
The controls of the operating parameters were as follows: capillary voltage, 3,500 V; EM voltage, 200 V; dry gas (N2) flow rate, 12 L/min; ion source temperature, 350°C; nebulizer, 25 psi.
The proposed method was validated by evaluation of specificity, accuracy, precision, LOD, and LOQ.

[4] = biological target: T1, NAD(P)H quinone oxidoreductase (NQO1) (Rattus norvegicus, UniProt P05982); test: In vitro inhibition of rat cytosolic NQO1 activity (DCPIP reduction); type: biochemical; settings: for NQO1 activities: compound 40.00 μM, control 67.14 ± 4.82; for NQO1 activities / Effect on NQO1 activity: rat liver cytosol; for Effect on NQO1 activity: in vitro
T1 construct: 50 μg/mL rat liver cytosol; from tissue; host or cells: rat liver cytosol
T1 sequence (P05982 2-274 limits assumed): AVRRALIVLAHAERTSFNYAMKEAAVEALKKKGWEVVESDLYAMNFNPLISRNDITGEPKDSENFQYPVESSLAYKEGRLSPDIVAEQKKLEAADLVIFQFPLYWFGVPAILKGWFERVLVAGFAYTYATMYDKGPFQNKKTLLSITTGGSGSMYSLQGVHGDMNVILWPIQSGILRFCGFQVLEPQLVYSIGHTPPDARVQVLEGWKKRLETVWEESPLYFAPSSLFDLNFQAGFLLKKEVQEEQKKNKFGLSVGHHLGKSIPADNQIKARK
Protocol: Any change in absorbance was monitored at 620 nm, and NQO1 activity was calculated by using the extinction coefficient for DCPIP (ε = 21 mM^−1cm^−1) and expressed as nanomles of DCPIP reduced per minute per milligram of protein.
The inhibitory effects of sanguinarine and chelerythrine were determined by the incubation of the reaction mixture with or without substrate. […] All of the incubations and sample preparations were carried out as described for the NQO1 assay above.

[5] = Metabolite profile of sanguinarine in plasma, urine and feces of rats after intragastric M. cordata extracts; type: in vivo, rat

Compound: O=c1ccc2ccc(O)cc2o1 [7-hydroxycoumarin]
Effect on iminium bond reduction of chelerythrine (DHCHE formation) in rat liver cytosol (rat liver cytosol): could inhibit

Compound: COc1ccc2c(c[n+](C)c3c4cc5c(cc4ccc23)OCO5)c1OC [Chelerythrine]
Found in spleen, lung, kidney, liver or heart by HPLC/QqTOF-MS [1]: no sanguinarine and chelerythrine or their metabolites were found
Cmax [2]: 5.06 ng/mL
T1/2 [2]: 2.82 h
Tmax [2]: 1.67 h
Detection in plasma ([3]; male and female rats, three hours after intragastric chelerythrine): no parent drug and metabolites were detected
Concentrations in (others) tissues (in vivo; both, SD, rat, in vivo): < 15 ng/g
concentration at 24 h (in vivo; both, SD, rat, in vivo, Concentration in spleen): 44 ng/mL
concentration at 48 h (in vivo; both, SD, rat, in vivo, Concentration in the liver): 20.6 ng/mL
NQO1 activities [4]: 64.90 ± 4.24 nanomolars of 2,6-dichlorophenolindophenol reduced per minute per milligram of protein
Effect on NQO1 activity [4]: weak impact

Found in feces ([3]; rat, in vivo): found
Observed in feces ([3]; rat, in vivo): observed
Compound: COc1ccc2c(c1OC)CN(C)c1c-2ccc2cc3c(cc12)OCO3 [DHCHE, dihydrochelerythrine]

Compound: O=c1oc2ccccc2c(O)c1Cc1c(O)c2ccccc2oc1=O [Dicoumarol, dicoumarol]
Effect on iminium bond reduction of chelerythrine (DHCHE formation) in rat liver cytosol (rat liver cytosol): could inhibit

Compound: CN1Cc2c(ccc3c2OCO3)-c2ccc3cc4c(cc3c21)OCO4 [Metabolite S1, dihydrosanguinarine]
Observed in rats in vivo (feces 0–24 h) ([5]; 5 mg/kg M. cordata extracts intragastric): observed

Compound: C[n+]1cc2c3c(ccc2c2ccc4cc5c(cc4c21)OCO5)OCO3 [Sanguinarine]
Observed in plasma at 3 h and urine of 0–24 h ([5]; rats, after intragastric M. cordata extracts): No parent drug or metabolites were observed
Found in spleen, lung, kidney, liver or heart by HPLC/QqTOF-MS [1]: no sanguinarine and chelerythrine or their metabolites were found
concentration at 24 h (in vivo; both, SD, rat, in vivo, 5 mg/kg, Residue in heart, 24 h after last dose, M. cordata extracts 5 mg/kg intragastric for 3 weeks): 2.91 ng/g
concentration at 48 h (in vivo; both, SD, rat, in vivo, 5 mg/kg, Residue in heart, 48 h after last dose, M. cordata extracts 5 mg/kg intragastric for 3 weeks): 2.57 ng/g
concentration at 24 h (in vivo; both, SD, rat, in vivo, 5 mg/kg, Residue in kidney, 24 h after last dose, M. cordata extracts 5 mg/kg intragastric for 3 weeks): 3.77 ng/g
concentration at 48 h (in vivo; both, SD, rat, in vivo, 5 mg/kg, Residue in kidney, 48 h after last dose, M. cordata extracts 5 mg/kg intragastric for 3 weeks): 5.65 ng/g
concentration at 24 h (in vivo; both, SD, rat, in vivo, 5 mg/kg, Residue in liver, 24 h after last dose, M. cordata extracts 5 mg/kg intragastric for 3 weeks): 10.4 ng/g
concentration at 48 h (in vivo; both, SD, rat, in vivo, 5 mg/kg, Residue in liver, 48 h after last dose, M. cordata extracts 5 mg/kg intragastric for 3 weeks): 9.8 ng/g
concentration at 24 h (in vivo; both, SD, rat, in vivo, 5 mg/kg, Residue in lung, 24 h after last dose, M. cordata extracts 5 mg/kg intragastric for 3 weeks): 2.29 ng/g
concentration at 48 h (in vivo; both, SD, rat, in vivo, 5 mg/kg, Residue in lung, 48 h after last dose, M. cordata extracts 5 mg/kg intragastric for 3 weeks): 2.01 ng/g
concentration at 24 h (in vivo; both, SD, rat, in vivo, 5 mg/kg, Residue in spleen, 24 h after last dose, M. cordata extracts 5 mg/kg intragastric for 3 weeks): 2.01 ng/g
concentration at 48 h (in vivo; both, SD, rat, in vivo, 5 mg/kg, Residue in spleen, 48 h after last dose, M. cordata extracts 5 mg/kg intragastric for 3 weeks): 1.91 ng/g
Concentrations in other tissues (in vivo; tissues other than chelerythrine in liver 48 h and spleen 24 h): < 11 ng/g
NQO1 activities [4]: 45.08 ± 4.34 nanomolars of 2,6-dichlorophenolindophenol reduced per minute per milligram of protein
IC50 ([4]; rat liver cytosol 50 μg/mL, 40 μM DCPIP, 0.2 mM NADH, 0–40 μM compound): 112 ± 6.17 µM
Effect on NQO1 activity [4]: statistically significant decline

Compound: CC1=CC(=O)c2ccccc2C1=O [menadione]
Effect on iminium bond reduction of chelerythrine (DHCHE formation) in rat liver cytosol (rat liver cytosol): could inhibit

Compound: O=c1c(O)c(-c2ccc(O)c(O)c2)oc2cc(O)cc(O)c12 [quercetin]
Effect on iminium bond reduction of chelerythrine (DHCHE formation) in rat liver cytosol (rat liver cytosol): could inhibit
